In this assay the test system is HCV 1b-377-neo replicon cells. The assay can be described thus: HCV replicon assay, HCV 1b-377-neo replicon cells (1b FRET). It is filed as cell-based, Hepatitis C virus genotype 1b. The following applies: HCV 1b-377-neo replicon cells, HCV 1b genotype; for EC50: Hepatitis C virus, read-out: EC50 range against HCV 1b (Table 2, Range). Put shortly:
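Compounds were tested in genotype 1b subgenomic replicon cells carrying a neomycin marker, alongside a matched replicon line with an NS5A Y2065H substitution that confers resistance to a reference NS5A inhibitor.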

The EC50 is the concentration giving half of the maximal effect. Regarding `CCN(CC)[C@@H](C(=O)N1CCC[C@H]1c1ncc(-c2ccc(-c3ccc(-c4cnc([C@@H]5CCCN5C(=O)[C@H](C)NC(=O)OC)[nH]4)cc3)cc2)[nH]1)C(C)C` [Example M101, methyl ((1S)-2-((2S)-2-(5-(4′-(2-((2S)-1-(N,N-diethyl-D-valyl)-2-pyrrolidinyl)-1H-imidazol-5-yl)-4-biphenylyl)-1H-imidazol-2-yl)-1-pyrrolidinyl)-1-methyl-2-oxoethyl)carbamate], the concentration for a half-maximal effect (EC50) was in the range of 0.1 to 0.999 µM. The same measure, in the same setting: the same measure for `CCCN(CCC)[C@H](C)C(=O)N1CCC[C@H]1c1ncc(-c2ccc(-c3ccc(-c4cnc([C@@H]5CCCN5C(=O)[C@H](C)NC(=O)OC)[nH]4)cc3)cc2)[nH]1` [Example M102, methyl ((1S)-2-((2S)-2-(5-(4′-(2-((2S)-1-(N,N-dipropyl-D-alanyl)-2-pyrrolidinyl)-1H-imidazol-5-yl)-4-biphenylyl)-1H-imidazol-2-yl)-1-pyrrolidinyl)-1-methyl-2-oxoethyl)carbamate]: 0.001 to 0.099 µM; for `CCCN(CCC)[C@@H](C)C(=O)N1CCC[C@H]1c1ncc(-c2ccc(-c3ccc(-c4cnc([C@@H]5CCCN5C(=O)[C@H](C)NC(=O)OC)[nH]4)cc3)cc2)[nH]1` [Example M103, methyl ((1S)-2-((2S)-2-(5-(4′-(2-((2S)-1-(N,N-dipropyl-L-alanyl)-2-pyrrolidinyl)-1H-imidazol-5-yl)-4-biphenylyl)-1H-imidazol-2-yl)-1-pyrrolidinyl)-1-methyl-2-oxoethyl)carbamate]: 0.1 to 0.999 µM; for `COC(=O)N[C@H](C(=O)N1CCC[C@H]1c1ncc(-c2ccc(-c3ccc(-c4cnc([C@@H]5CCCN5C(=O)[C@@H](N)C(C)(C)O)[nH]4)cc3)cc2)[nH]1)C(C)C` [Example M104, methyl ((1S)-1-(((2S)-2-(5-(4′-(2-((2S)-1-(3-hydroxy-L-valyl)-2-pyrrolidinyl)-1H-imidazol-5-yl)-4-biphenylyl)-1H-imidazol-2-yl)-1-pyrrolidinyl)carbonyl)-2-methylpropyl)carbamate]: 0.1 to 0.999 µM. On the same count and under the same terms, in the case of `COC(=O)N[C@H](C(=O)N1CCC[C@H]1c1ncc(-c2ccc(-c3ccc(-c4cnc([C@@H]5CCCN5C(=O)[C@@H](NC(=O)OC)C(C)(C)O)[nH]4)cc3)cc2)[nH]1)C(C)C` [Example M105] it was 0.001 to 0.099 µM. With `COC(=O)N[C@H](C(=O)N1CCC[C@H]1c1ncc(-c2ccc(-c3ccc(-c4cnc([C@@H]5CCCN5C(=O)[C@@H](NC(=O)OC)[C@@H](C)CO)[nH]4)cc3)cc2)[nH]1)C(C)C` [Example M106], the EC50 is 0.001 to 0.099 µM. On the same count and under the same terms, in the case of `COC(=O)N[C@H](C(=O)N1CCC[C@H]1c1ncc(-c2ccc(-c3ccc(-c4cnc([C@@H]5CCCN5C(=O)[C@@H](NC(=O)OC)[C@H](C)CO)[nH]4)cc3)cc2)[nH]1)C(C)C` [Example M107] it was 0.001 to 0.099 µM; in that of `COC(=O)N[C@H](C(=O)N1CCC[C@H]1c1ncc(-c2ccc(-c3ccc(-c4cnc([C@@H]5CCCN5C(=O)[C@@H](N)C(C)C)[nH]4)cc3)cc2)[nH]1)C(C)C` [Example M108, methyl ((1S)-2-methyl-1-(((2S)-2-(5-(4′-(2-((2S)-1-L-valyl-2-pyrrolidinyl)-1H-imidazol-5-yl)-4-biphenylyl)-1H-imidazol-2-yl)-1-pyrrolidinyl)carbonyl)propyl)carbamate], 0.001 to 0.099 µM; in that of `COC(=O)N[C@@H](CC(=O)OCc1ccccc1)C(=O)N1CCC[C@H]1c1ncc(-c2ccc(-c3ccc(-c4cnc([C@@H]5CCCN5C(=O)[C@@H](NC(=O)OC)C(C)C)[nH]4)cc3)cc2)[nH]1` [Example M109, benzyl (3S)-3-((methoxycarbonyl)amino)-4-((2S)-2-(5-(4′-(2-((2S)-1-(N-(methoxycarbonyl)-L-valyl)-2-pyrrolidinyl)-1H-imidazol-5-yl)-4-biphenylyl)-1H-imidazol-2-yl)-1-pyrrolidinyl)-4-oxobutanoate], 0.001 to 0.099 µM. On the same count and under the same terms, the same measure for `COC(=O)C[C@H](NC(=O)OC)C(=O)N1CCC[C@H]1c1ncc(-c2ccc(-c3ccc(-c4cnc([C@@H]5CCCN5C(=O)[C@@H](NC(=O)OC)C(C)C)[nH]4)cc3)cc2)[nH]1` [Example M110, methyl (3S)-3-((methoxycarbonyl)amino)-4-((2S)-2-(5-(4′-(2-((2S)-1-(N-(methoxycarbonyl)-L-valyl)-2-pyrrolidinyl)-1H-imidazol-5-yl)-4-biphenylyl)-1H-imidazol-2-yl)-1-pyrrolidinyl)-4-oxobutanoate]: 0.001 to 0.099 µM; for `COC(=O)N[C@@H](CC(=O)O)C(=O)N1CCC[C@H]1c1ncc(-c2ccc(-c3ccc(-c4cnc([C@@H]5CCCN5C(=O)[C@@H](NC(=O)OC)C(C)C)[nH]4)cc3)cc2)[nH]1` [Example M111, (3S)-3-((methoxycarbonyl)amino)-4-((2S)-2-(5-(4′-(2-((2S)-1-(N-(methoxycarbonyl)-L-valyl)-2-pyrrolidinyl)-1H-imidazol-5-yl)-4-biphenylyl)-1H-imidazol-2-yl)-1-pyrrolidinyl)-4-oxobutanoic acid]: 1 to 10 µM; for `COC(=O)N[C@@H](CC(=O)N1CCN(C)CC1)C(=O)N1CCC[C@H]1c1ncc(-c2ccc(-c3ccc(-c4cnc([C@@H]5CCCN5C(=O)[C@@H](NC(=O)OC)C(C)C)[nH]4)cc3)cc2)[nH]1` [Example M112, methyl ((1S)-1-(((2S)-2-(5-(4′-(2-((2S)-1-((2S)-2-((methoxycarbonyl)amino)-4-(4-methyl-1-piperazinyl)-4-oxobutanoyl)-2-pyrrolidinyl)-1H-imidazol-5-yl)-4-biphenylyl)-1H-imidazol-2-yl)-1-pyrrolidinyl)carbonyl)-2-methylpropyl)carbamate]: 0.001 to 0.099 µM. Still for that read-out and setting: in the case of `COC(=O)N[C@@H](CC(=O)N(C)C)C(=O)N1CCC[C@H]1c1ncc(-c2ccc(-c3ccc(-c4cnc([C@@H]5CCCN5C(=O)[C@@H](NC(=O)OC)C(C)C)[nH]4)cc3)cc2)[nH]1` [Example M113, methyl ((1S)-3-(dimethylamino)-1-(((2S)-2-(5-(4′-(2-((2S)-1-((2S)-2-((methoxycarbonyl)amino)-3-methylbutanoyl)-2-pyrrolidinyl)-1H-imidazol-5-yl)-4-biphenylyl)-1H-imidazol-2-yl)-1-pyrrolidinyl)carbonyl)-3-oxopropyl)carbamate] it was 0.001 to 0.099 µM.

In the case of `COC(=O)N[C@H](C(=O)N1CCC[C@H]1c1ncc(-c2ccc(-c3ccc(-c4cnc([C@@H]5CCCN5C(=O)[C@@H](NC(=O)OC)C(C)C)[nH]4)cc3C(=O)O)cc2)[nH]1)C(C)C` [Example M114, 4,4′-bis(2-((2S)-1-(N-(methoxycarbonyl)-L-valyl)-2-pyrrolidinyl)-1H-imidazol-5-yl)-2-biphenylcarboxylic acid], the “EC50 range against HCV 1b (Table 2, Range)” value is given as “>A”. Still for that read-out and setting: in the case of `COC(=O)N[C@@H](C(=O)N1CCC[C@H]1c1ncc(-c2ccc(-c3ccc(-c4cnc([C@@H]5CCCN5C(=O)[C@H](NC(=O)OC)C5CC5)[nH]4)cc3C(=O)O)cc2)[nH]1)C1CC1` [Example M115, 4,4′-bis(2-((2S)-1-((2R)-2-cyclopropyl-2-((methoxycarbonyl)amino)acetyl)-2-pyrrolidinyl)-1H-imidazol-5-yl)-2-biphenylcarboxylic acid] it was “>A”. On the same count and under the same terms, the same measure for `COC(=O)N[C@H](C(=O)N1CCC[C@H]1c1ncc(-c2ccc(-c3ccc(-c4cnc([C@@H]5CCCN5C(=O)[C@@H](NC(=O)OC)C5CC5)[nH]4)cc3C(=O)O)cc2)[nH]1)C1CC1` [Example M116, 4,4′-bis(2-((2S)-1-((2S)-2-cyclopropyl-2-((methoxycarbonyl)amino)acetyl)-2-pyrrolidinyl)-1H-imidazol-5-yl)-2-biphenylcarboxylic acid]: “>A”; for `COC(=O)N[C@@H](C(=O)N1CCC[C@H]1c1ncc(-c2ccc(-c3ccc(-c4cnc([C@@H]5CCCN5C(=O)[C@H](NC(=O)OC)c5ccccc5)[nH]4)cc3C(=O)O)cc2)[nH]1)c1ccccc1` [Example M117, 4,4′-bis(2-((2S)-1-((2R)-2-((methoxycarbonyl)amino)-2-phenylacetyl)-2-pyrrolidinyl)-1H-imidazol-5-yl)-2-biphenylcarboxylic acid]: “>A”; for `COC(=O)N[C@H](C(=O)N1CCC[C@H]1c1ncc(-c2ccc(-c3ccc(-c4cnc([C@@H]5CCCN5C(=O)[C@@H](NC(=O)OC)C(C)C)[nH]4)cc3C(N)=O)cc2)[nH]1)C(C)C` [Example M118, methyl ((1S)-1-(((2S)-2-(5-(2′-carbamoyl-4′-(2-((2S)-1-((2S)-2-((methoxycarbonyl)amino)-3-methylbutanoyl)-2-pyrrolidinyl)-1H-imidazol-5-yl)-4-biphenylyl)-1H-imidazol-2-yl)-1-pyrrolidinyl)carbonyl)-2-methylpropyl)carbamate]: “>A”. Regarding `COC(=O)N[C@H](C(=O)N1CCC[C@H]1c1ncc(-c2ccc(-c3ccc(-c4cnc([C@@H]5CCCN5C(=O)[C@@H](NC(=O)OC)C(C)C)[nH]4)cc3CO)cc2)[nH]1)C(C)C` [Example M119, methyl ((1S)-1-(((2S)-2-(5-(2-(hydroxymethyl)-4′-(2-((2S)-1-((2S)-2-((methoxycarbonyl)amino)-3-methylbutanoyl)-2-pyrrolidinyl)-1H-imidazol-5-yl)-4-biphenylyl)-1H-imidazol-2-yl)-1-pyrrolidinyl)carbonyl)-2-methylpropyl)carbamate], the EC50 is 0.1 to 0.999 µM. With `COC(=O)N[C@H](C(=O)N1CCC[C@H]1c1ncc(-c2ccc(-c3ccc(-c4cnc([C@@H]5CCCN5C(=O)[C@@H](NC(=O)OC)C(C)C)[nH]4)cc3CN(C)C)cc2)[nH]1)C(C)C` [Example M120], the EC50 lay within 0.1 to 0.999 µM. For `COC(=O)N[C@@H](C(=O)N1CCC[C@H]1c1ncc(-c2ccc(-c3ccc(-c4cnc([C@@H]5CCCN5C(=O)[C@H](NC(=O)OC)c5ccccc5)[nH]4)cc3CN(C)C)cc2)[nH]1)c1ccccc1` [Example M121], the EC50 was in the range of 0.1 to 0.999 µM.

For the origin of these results see US8574563B2 (Bristol-Myers Squibb Company, priority 2006, dated 2013).
